“Also recorded” adds a separate entry of the source.
Tested on: ROS
Assay: Cell free ROS assay with H2O2 and H2DCF indicator
Settings: free PEG added to C-GQDs (FIG. 18B)
Method: The samples (C-GQDs, H-GQDs, S-GQDs and P-GQDs) were incubated with H2O2 in 10% fetal bovine serum (FBS) solution at 37° C. Chemically hydrolyzed 2,7-dichlorodihydrofluorescein diacetate (H2DCF-DA), yielding H2DCF, was used as a fluorescent indicator of ROS production. The increase in ROS over 90 min with 10 μM and 20 μM H2O2 in the presence and absence of GQDs were monitored. In the case of C-GQDs and H-GQDs incubated with 20 μM H2O2, the ROS production increased ˜3 and ˜4 times respectively (FIG. 7A). […] Thus, confirming again the ROS quenching ability of PEG. […] The H-GQDs produced more ROS than C-GQDs, likely because of more free-radical-susceptible hydroxyl groups on the surface generated by the hydrothermal treatment.

Question: For polyethylene glycol [free PEG], which “ROS quenching by free PEG in solution along with C-GQD” value is on record?
Answer: did not quench the ROS produced in solution; also recorded: No significant quenching

Reference: patent US9642815B2, “Biocompatible graphene quantum dots for drug delivery and bioimaging applications” (Council of Scientific and Industrial Research, priority 2013, dated 2017)
